Measured values reported in US6472348B1, “Pyridone derivatives and herbicides” (Kumiai Chemical Industry Co., Ltd., priority 1996, dated 2002).

Experiments:
rice flatsedge (Ci) [1] = test: Test Example 2: herbicidal effects by upland field soil treatment; format: in vivo; settings: 100 g of the active ingredient per 10 ares, 21st day after the application, index 0-5 of Table 47;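 note: grade of growth control; 5 = at least 90%; 4 = 70 to 90%; 3 = 50 to 70%; 2 = 30 to 50%; 1 = 10 to 30%; 0 = under 10%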
From the text: (§1) (Test on Herbicidal Effects by Upland Field Soil Treatment)

[2] = test system: common lambsquarters (Ch); test: as above; format: in vivo; settings: 100 g of the active ingredient per 10 ares, 21st day after the application, index 0-5 of Table 47
From the text: as §1

pale smartweed (Po) [3] = test: as above; format: in vivo; settings: 100 g of the active ingredient per 10 ares, 21st day after the application, index 0-5 of Table 47
From the text: as §1

slender amaranth (Am) [4] = test: as above; format: in vivo; settings: 100 g of the active ingredient per 10 ares, 21st day after the application, index 0-5 of Table 47
From the text: as §1

barnyardgrass (Ec) [5] = test: as above; format: in vivo; settings: 100 g of the active ingredient per 10 ares, 21st day after the application, index 0-5 of Table 47
From the text: as §1

Digitaria ciliaris (Di) = test: as above; format: in vivo; settings: 100 g of the active ingredient per 10 ares, 21st day after the application, index 0-5 of Table 47
From the text: as §1

rice flatsedge (Ci) [6] = test: Test Example 3: herbicidal effects by upland field foliage treatment; format: in vivo; set-up: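 grade of growth control; 5 = at least 90%; 4 = 70 to 90%; 3 = 50 to 70%; 2 = 30 to 50%; 1 = 10 to 30%; 0 = under 10%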; settings: 100 g of the active ingredient per 10 ares, evaluated on the 14th day after treatment
Procedure, shortened: (§2)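 Using plants cultured for 2 weeks in a greenhouse from seed sown in soil-covered sand (pots 120 cm^2), the compounds were applied to foliage, and weed control was graded by standard criteria 14 days thereafter.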

[7] = test system: common lambsquarters (Ch); test: as above; format: in vivo; set-up: scale not given here; settings: 100 g of the active ingredient per 10 ares, evaluated on the 14th day after treatment
Procedure, shortened: as §2

Diaitaria ciliaris (Di) = test: as above; format: in vivo; set-up: scale not given here; settings: 100 g of the active ingredient per 10 ares, evaluated on the 14th day after treatment
Procedure, shortened: as §2

pale smartweed (Po) [8] = test: as above; format: in vivo; set-up: scale not given here; settings: 100 g of the active ingredient per 10 ares, evaluated on the 14th day after treatment
Procedure, shortened: as §2

slender amaranth (Am) [9] = test: as above; format: in vivo; set-up: scale not given here; settings: 100 g of the active ingredient per 10 ares, evaluated on the 14th day after treatment
Procedure, shortened: as §2

barnyardgrass (Ec) [10] = test: as above; format: in vivo; set-up: scale not given here; settings: 100 g of the active ingredient per 10 ares, evaluated on the 14th day after treatment
Procedure, shortened: as §2

soybean (Gl) = test: Test Example 10: crop plant selectivity by upland field foliage treatment (soybean), phytotoxicity; settings: dose 1.6 g ai/10a, 14th day after treatment
Method: (§3) (Test on Crop Plant Selectivity by Upland Field Foliage Treatment)
(§4) In a plastic pot (surface area: 600 cm^2) filled with sand, soybean (Gl), pale smartweed (Po), slender amaranth (Am), common lambsquarters (Ch) and China jute (Ab) were sown and cultured in a green house for 2 weeks. […] The plants were then cultured in a green house, and the evaluation of the herbicidal effects and phytotoxicity was conducted on the 14th day after the treatment in accordance with the standards as identified in Table 47.

[11] = test system: common lambsquarters (Ch); test: Test Example 9: crop plant selectivity by upland field foliage treatment (wheat), herbicidal effects; format: in vivo; set-up: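 grade of growth control; 5 = at least 90%; 4 = 70 to 90%; 3 = 50 to 70%; 2 = 30 to 50%; 1 = 10 to 30%; 0 = under 10%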; settings: dose 1.6 g ai/10a, 14th day after treatment
Procedure, shortened: (§5)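 Wheat and weeds sown in sand-filled pots, grown 2 weeks in a greenhouse, then foliage-treated. Herbicidal effect and crop phytotoxicity were scored 14 days after treatment against a rating scale.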

China jute (Ab) [12] = test: as above; format: in vivo; set-up: scale not given here; settings: dose 1.6 g ai/10a, 14th day after treatment
Procedure, shortened: as §5

pale smartweed (Po) [13] = test: as above; format: in vivo; set-up: scale not given here; settings: dose 1.6 g ai/10a, 14th day after treatment
Procedure, shortened: as §5

slender amaranth (Am) [14] = test: as above; format: in vivo; set-up: scale not given here; settings: dose 1.6 g ai/10a, 14th day after treatment
Procedure, shortened: as §5

[15] = test system: common lambsquarters (Ch); test: Test Example 10: crop plant selectivity by upland field foliage treatment (soybean), herbicidal effects; format: in vivo; settings: dose 1.6 g ai/10a, 14th day after treatment
Method: as §3, §4

China jute (Ab) [16] = test: as above; format: in vivo; settings: dose 1.6 g ai/10a, 14th day after treatment
Method: as §3, §4

pale smartweed (Po) [17] = test: as above; format: in vivo; settings: dose 1.6 g ai/10a, 14th day after treatment
Method: as §3, §4

slender amaranth (Am) [18] = test: as above; format: in vivo; settings: dose 1.6 g ai/10a, 14th day after treatment
Method: as §3, §4

[19] = test system: common lambsquarters (Ch); test: Test Example 11: crop plant selectivity by upland field foliage treatment (corn), herbicidal effects; format: in vivo; set-up: scale not given here; settings: upland field foliage treatment (corn test), dose 1.6 g ai/10a, 14th day after treatment
Procedure, shortened: (§6)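 Corn with pale smartweed, slender amaranth, common lambsquarters and China jute sown in sand-filled pots and grown 2 weeks in a greenhouse before foliage treatment. Herbicidal effect and crop phytotoxicity scored on day 14 after treatment against a rating standard.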

China jute (Ab) [20] = test: as above; format: in vivo; set-up: scale not given here; settings: upland field foliage treatment (corn test), dose 1.6 g ai/10a, 14th day after treatment
Procedure, shortened: as §6

pale smartweed (Po) [21] = test: as above; format: in vivo; set-up: scale not given here; settings: upland field foliage treatment (corn test), dose 1.6 g ai/10a, 14th day after treatment
Procedure, shortened: as §6

slender amaranth (Am) [22] = test: as above; format: in vivo; set-up: scale not given here; settings: upland field foliage treatment (corn test), dose 1.6 g ai/10a, 14th day after treatment
Procedure, shortened: as §6

corn (Ze) = test: Test Example 11: crop plant selectivity by upland field foliage treatment (corn), phytotoxicity; settings: upland field foliage treatment, dose 1.6 g ai/10a, 14th day after treatment
Procedure, shortened: as §6

monochoria (Mo) = test: Test Example 1: herbicidal effects by paddy field soil treatment; format: in vivo; settings: 100 g of the active ingredient per 10 ares, 21st day after the application, index 0-5 of Table 47;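 note: grade of growth control; 5 = at least 90%; 4 = 70 to 90%; 3 = 50 to 70%; 2 = 30 to 50%; 1 = 10 to 30%; 0 = under 10%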
Procedure, shortened: (§7)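 Scoring of herbicidal effect came 21 days after application of 100 g active ingredient per 10 ares to flooded (3 cm) paddy-soil pots sown with barnyardgrass, monochoria and bulrush, kept in a greenhouse.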

bulrush (Sc) = test: as above; format: in vivo; settings: 100 g of the active ingredient per 10 ares, 21st day after the application, index 0-5 of Table 47;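 note: grade of growth control; 5 = at least 90%; 4 = 70 to 90%; 3 = 50 to 70%; 2 = 30 to 50%; 1 = 10 to 30%; 0 = under 10%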
Procedure, shortened: as §7

barnyardgrass (Ec) [23] = test: as above; format: in vivo; settings: 100 g of the active ingredient per 10 ares, 21st day after the application, index 0-5 of Table 47
Procedure, shortened: as §7

wheat (Tr) = test: Test Example 9: crop plant selectivity by upland field foliage treatment (wheat), phytotoxicity; settings: dose 1.6 g ai/10a, 14th day after treatment;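 note: grade of crop injury; 5 = at least 90%; 4 = 70 to 90%; 3 = 50 to 70%; 2 = 30 to 50%; 1 = 10 to 30%; 0 = under 10%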
Procedure, shortened: as §5

## COCSc1cc(-c2ccc(C(F)(F)F)n(C)c2=O)c(Cl)cc1Cl [1-126]
Rice flatsedge (Ci) [1]
  Herbicidal effects Ci: 5
[2]
  Herbicidal effects Ch: 5
Pale smartweed (Po) [3]
  Herbicidal effects Po: 5
Slender amaranth (Am) [4]
  Herbicidal effects Am: 5
Barnyardgrass (Ec) [5]
  Herbicidal effects Ec: 5
Digitaria ciliaris (Di)
  Herbicidal effects Di: 5
Rice flatsedge (Ci) [6]
  Herbicidal effects Ci: 5
[7]
  Herbicidal effects Ch: 5
Diaitaria ciliaris (Di)
  Herbicidal effects Di: 5
Pale smartweed (Po) [8]
  Herbicidal effects Po: 5
Slender amaranth (Am) [9]
  Herbicidal effects Am: 5
Barnyardgrass (Ec) [10]
  Herbicidal effects Ec: 5
Soybean (Gl)
  Phytotoxicity Gl: 2
[11]
  Herbicidal effects Ch: 5
China jute (Ab) [12]
  Herbicidal effects Ab: 5
Pale smartweed (Po) [13]
  Herbicidal effects Po: 5
Slender amaranth (Am) [14]
  Herbicidal effects Am: 5
[15]
  Herbicidal effects Ch: 5
China jute (Ab) [16]
  Herbicidal effects Ab: 5
Pale smartweed (Po) [17]
  Herbicidal effects Po: 5
Slender amaranth (Am) [18]
  Herbicidal effects Am: 5
[19]
  Herbicidal effects Ch: 5
China jute (Ab) [20]
  Herbicidal effects Ab: 5
Pale smartweed (Po) [21]
  Herbicidal effects Po: 5
Slender amaranth (Am) [22]
  Herbicidal effects Am: 5
Corn (Ze)
  Phytotoxicity Ze: 2
Monochoria (Mo)
  Herbicidal effects Mo: 5
Bulrush (Sc)
  Herbicidal effects Sc: 5
Barnyardgrass (Ec) [23]
  Herbicidal effects Ec: 5
Wheat (Tr)
  Phytotoxicity Tr: 2
